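Each compound was tested at five concentrations against cells in 96-well plates for 48 hours. GI50: concentration for 50% inhibition of growth.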 Calls of active or inactive are those of the source. No stated cut-off is given here; in the data, active = GI50 up to about 1.1 µM and inactive = higher. Non-standard residues stand in square brackets, D forms with d. Residues, ends and D or L forms follow the SMILES beside them. ξ: configuration not given here. *: point of attachment. NMeF = CN[C@@H](Cc1ccccc1)C(=O)O; NMeV = CN[C@H](C(=O)O)C(C)C; ξNMeV = CNC(C(=O)O)C(C)C; Boc = CC(C)(C)OC(=O)*; OBn = c1ccc(CO*)cc1
Columns and labels:
Experiment in all cases: DTP human tumour cell line panel, 48 h
OVCAR-8 = system: OVCAR-8
U-251 = system: U-251
TK-10 = system: TK-10
OVCAR-3 = system: OVCAR-3
NCI-H460 = system: NCI-H460
UACC-257 = system: UACC-257
HOP-92 = system: HOP-92
OVCAR-5 = system: OVCAR-5
UO-31 = system: UO-31
CCRF-CEM = system: CCRF-CEM
NCI-H23 = system: NCI-H23
PC-3 = system: PC-3
K562 = system: K562
RPMI-8226 = system: RPMI-8226
SW-620 = system: SW-620
COLO 205 = system: COLO 205
SNB-19 = system: SNB-19
MCF7 = system: MCF7
Malme-3M = system: Malme-3M

Row | SMILES | GI50 (OVCAR-8) | GI50 (U-251) | GI50 (TK-10) | GI50 (OVCAR-3) | GI50 (NCI-H460) | GI50 (UACC-257) | GI50 (HOP-92) | GI50 (OVCAR-5) | GI50 (UO-31) | GI50 (CCRF-CEM) | GI50 (NCI-H23) | GI50 (PC-3) | GI50 (K562) | GI50 (RPMI-8226) | GI50 (SW-620) | GI50 (COLO 205) | GI50 (SNB-19) | GI50 (MCF7) | GI50 (Malme-3M)
1 | CC(=O)NCCc1c(-c2[nH]c3ccccc3c2CCNC(C)=O)[nH]c2ccccc12 | 78.2 µM (inactive) | > 100 µM (inactive) | 92.7 µM (inactive) | > 100 µM (inactive) | 42.2 µM (inactive) | > 100 µM (inactive) | 22.2 µM (inactive) | 66.7 µM (inactive) | > 100 µM (inactive) | > 100 µM (inactive) | > 100 µM (inactive) | > 100 µM (inactive) | > 100 µM (inactive) | > 100 µM (inactive) | > 100 µM (inactive) | > 100 µM (inactive) | > 100 µM (inactive) | > 100 µM (inactive) | 
2 | Cc1ccc(-c2cs/c(=N\c3c(C)n(C)n(-c4ccccc4)c3=O)n2CCO)cc1 | > 100 µM (inactive) | > 100 µM (inactive) | > 100 µM (inactive) | > 100 µM (inactive) | > 100 µM (inactive) | 53.8 µM (inactive) | > 100 µM (inactive) | > 100 µM (inactive) | > 100 µM (inactive) | > 100 µM (inactive) | 50.8 µM (inactive) | > 100 µM (inactive) | 97.3 µM (inactive) | > 100 µM (inactive) |  |  | > 100 µM (inactive) | 72.9 µM (inactive) | 
3 | O=NN(CCCl)C(=O)N[C@H]1CC[C@@H](CC(=O)O)CC1 | > 100 µM (inactive) | 74 µM (inactive) |  | > 100 µM (inactive) | 55.2 µM (inactive) | > 100 µM (inactive) | > 84.9 µM (inactive) | > 100 µM (inactive) | > 100 µM (inactive) | 28.6 µM (inactive) | > 100 µM (inactive) |  | > 100 µM (inactive) | 35.2 µM (inactive) | > 100 µM (inactive) | > 100 µM (inactive) | 99.3 µM (inactive) | > 100 µM (inactive) | > 100 µM (inactive)
4 | COc1cccc(C2C3=C(COC3=O)Oc3cc4c(cc32)OCO4)c1 (centres undefined) | 0.0421 µM (active) | 0.0445 µM (active) | 0.0766 µM (active) | 0.0219 µM (active) | 0.0267 µM (active) | 0.0303 µM (active) |  | 0.52 µM (active) | 0.0927 µM (active) | 0.0192 µM (active) | 0.0653 µM (active) | 0.0196 µM (active) | < 0.0135 µM (active) | 0.0156 µM (active) | 0.0188 µM (active) | 0.0233 µM (active) | 0.187 µM (active) | 0.0246 µM (active) | 0.0248 µM (active)
5 | Oc1ccc(-c2nc3ccc(Cl)cc3s2)cc1 | 19.3 µM (inactive) | 19.7 µM (inactive) | 20.4 µM (inactive) | 23.5 µM (inactive) | 18.8 µM (inactive) | 19.6 µM (inactive) |  | 17.9 µM (inactive) | 14.2 µM (inactive) | 5.35 µM (inactive) | 18.3 µM (inactive) | 20.4 µM (inactive) | 28.2 µM (inactive) | 20.1 µM (inactive) | 21.1 µM (inactive) | 17.7 µM (inactive) | 20.2 µM (inactive) | 7.41 µM (inactive) | 19.3 µM (inactive)
6 | CC(C)C(C(=O)N(C)[C@H](C(=O)N1CCC[C@H]1C(=O)N(C)[C@@H](Cc1ccccc1)C(=O)OCc1ccccc1)C(C)C)N(C)C(=O)[C@@H](NC(=O)OC(C)(C)C)C(C)C (some centres undefined) (Boc-V[ξNMeV][NMeV]P[NMeF]-OBn) | > 31.6 µM (inactive) | > 31.6 µM (inactive) | 29.2 µM (inactive) | 15.3 µM (inactive) | 15.8 µM (inactive) | 9.33 µM (inactive) | 10.2 µM (inactive) | > 31.6 µM (inactive) | 30.4 µM (inactive) | 11.2 µM (inactive) | 19.5 µM (inactive) |  | 4.42 µM (inactive) | 4.97 µM (inactive) | > 31.6 µM (inactive) | 11.4 µM (inactive) | > 31.6 µM (inactive) |  | 34.8 µM (inactive)

Reference: ChEMBL document CHEMBL1201862, “PubChem BioAssay data set” (2004)
